1 compound from US10098861B1 (SyneuRx International (Taiwan) Corp., priority 2017, dated 2018) can be followed below.

Molecules are shown by their SMILES.

The conditions of this series: 500 mg, >90% RH, ambient temperature, 5 days.

On to `O=C([O-])c1ccccc1.[Na+]` [sodium benzoate], for which the “change in XRPD pattern” value was “significant changes”.
